# In patent US20140030260A1, “METHODS AND COMPOSITIONS TO ELIMINATE CHRONIC LYMPHOCYTIC LEUKEMIA AND OTHER HEMATOLOGIC MALIGNANT CELLS IN STROMAL MICROENVIRONMENT FOR CANCER THERAPY” (BOARD OF REGENTS, THE UNIVERSITY OF TEXAS SYSTEM, priority 2010, published 2014):
# Entries after “also recorded” stand apart in the source; their conditions may differ.
# What was measured:
# CLL cells = assay: ROS, cellular thiol and glutathione in CLL cells (mitosox Red, CMFDA); format: cell-based, human; details: in the presence of stromal cells (HS-5); 50 μM
# Text: Mitochondrial ROS levels were stained by mitosox Red (A) and cellular thiol was stained by CMFDA (B).
# [1] = system: primary leukemia cells (CLL); assay: Viability of primary CLL cells cultured alone or with stromal cells, flow cytometry after annexin-V/PI double-staining; details: for effect on the toxicity of selecticine in CLL cells: patient #17, co-culture with various types of marrow cells, 20 μM selecticine
# Experimental: The cells were then treated with 50 μM selecticine for 2 days, and cell viability was measured by flow cytometry analysis after double-staining with annexin-V and PI.
# The cells were then treated with 50 or 100 μM selecticine for 2 days. Cell viability was then measured by flow cytometry analysis after double-staining with annexin-V and PI.
# The cells were then treated with 50 μM selecticine for 2 days. Cell viability was then measured by flow cytometry analysis after double-staining with annexin-V and PI.
# Cell viability was then measured by flow cytometry analysis after double-staining with annexin-V and PI.
# CLL cells isolated from two different patients were treated as follow: (1) Control (CLL alone); (2) Selenocystine mixed with the conditioned medium (CM) of stromal cell culture; (3) Medium from stromal cell culture incubated with selenocystine. After an additional 48-h incubation with CLL cells (without stramal), cell viability was measured by flow cytometry analysis after double-staining with annexin-V and PI.
# CLL cells (without stromal) were then incubated for 72 hours with: (1) control medium; (2) 200 μM 2-mercaptoethanol (2ME) alone; (3) 50 μM selenocystine alone; (4) Selecticine-02 (50 μM selenocystine+200 μM 2-mercaptoethanol pre-mixed overnight). Cell viability was measured by flow cytometry analysis after double-staining with annexin-V and PI.
# The experimental conditions were the same as FIG. 14, except the selenocystine:2ME ration was 5:2 instead of 1:4.
# The cells were then treated with 50 mM selenocystine for 2 days.
# [2] = system: EBV-immortalized normal lymphocytes; assay: Viability of immortalized normal lymphocytes with or without stromal cells, annexin-V/PI flow cytometry; format: cell-based; details: not further specified
# Text: The numbers indicate % of viable cells.
smiles,measurement,setting,value
"NC(C[Se][Se]CC(N)C(=O)O)C(=O)O (stereo not drawn) [selenocystine, 2-amino-3-(2-amino-2-carboxy-ethyl)selanylselanyl-propanoic acid]","ROS generation in CLL cells (mitochondrial ROS, mitosox Red)",CLL cells,significant increase in ROS production
same,cytotoxic effect on leukemia (CLL) cells,[1]; cultured alone / in the absence of stromal cells,only moderate cytotoxic effect
same,killing of primary CLL cells (cell viability),"[1]; in the presence of bone marrow stromal cells (HS-5), 50 μM, 2 days",highly potent cytotoxic effect; also recorded: considerable leukemia cell death
same,toxicity to CLL cells after conversion by stromal factor in stromal conditioned medium,"[1]; mixed or incubated with stromal cell culture medium, 48-h incubation with CLL cells without stromal cells",highly toxic
"CCCCS(=N)(=O)CCC(N)C(=O)O (stereo not drawn) [BSO, reference compound]",effect on the toxicity of selecticine in CLL cells,[1],enhanced
"CC(=O)N[C@@H](CS)C(=O)O [NAC, reference compound]",effect on the toxicity of selecticine in CLL cells,[1],protected
"NC(C[SeH])C(=O)O (stereo not drawn) [selenocysteine, 3-selenyl-2-aminopropanoic acid]",toxicity to normal cells,[2],low toxicity
same,toxicity to CLL leukemia cells of the active compound formed by stromal cells,[1]; mechanistic studies,highly toxic
"Nc1nc(F)nc2c1ncn2[C@@H]1O[C@H](CO)[C@@H](O)[C@@H]1O [F-ara-A, reference compound]",effect of stromal cells on the drug's cytotoxicity in CLL cells,"[1]; patient #10, different types of stromal cells, 50 μM selecticine, 20 μM F-ara-A or 20 μM oxaliplatin, 2 days",protected
